Assay results published in patent US12624127B2, “Chitosan derivatives as antimicrobials and synergistic combinations thereof” (priority 2022, dated 2026).

Assays:
[1] = system: rabbit erythrocyte suspension; assay: Hemolytic activity test; assay type: cell-based; conditions: 78 μg/mL, 1 h
Experimental: Fresh rabbit blood (5 mL) was washed three times with sterilized PBS and diluted to a final concentration of 5% v/v. A series concentration of 2,6-DAC and Gramicidin control were incubated with the prepared erythrocyte suspension for 1 h with shaking in a 96-well plate. The supernatant (80 μL) was aliquoted to a new plate after centrifugation at 1000 g for 10 min. The absorbance at 540 nm was recorded by the TECAN microplate reader. 0.1% Triton X-100 that can lyse red blood cells completely was used as the positive control (Op), and PBS was used as the negative control (On). The percentage of hemolysis was determined by the following equation: Hemolysis%=[(Ox−On)/(Op−On)]×100% Results and Discussion

3T3 cells = system: 3T3 cells
Experimental: In a 96-well plate, 3T3 cells were co-cultured for 24 h at 37° C. with polymer (100 μg/mL or 200 μg/mL) at initial cell density of 1×10^5 cells per well. At the end of the incubation period, the culture medium was removed, each well was washed with PBS followed by the addition of MTT solution, and the plate was incubated for 4 h at 37° C. The MTT medium was then removed, 100 μL of DMSO was added to each well, the plate was shaken at 100 rpm for 15 min and the absorbance at 570 nm was measured with plate reader (BIO-RAD Benchmark Plus, US).

[2] = parameters: species or system mice; conditions: mouse, in vivo, ip, 25 mg/kg
Experimental: The biomarkers were determined before treatment (Day 0), and Day 1 and Day 7 after administration. The biomarkers of Day 0 were the untreated controls. The animal experiments were carried out in accordance to the Code of Practice for the Institutional Care and Use of Animals for Scientific Purposes and were approved by the Ethics Committee of Ningbo University.

MDR A. baumannii (AB-1) [3] = assay: Neutropenic lung infection model in BALB/c mice; assay type: in vivo, Acinetobacter baumannii; conditions: rifampicin 10 mg/kg alone, 24 h
Experimental: Bacterial cultures of MDR . baumannii (AB-1) were prepared and used to infect 8-week-old female BALB/c mice. 10^8 CFU/mL of AB-1 (30 μL) was inhaled by the mouse to introduce the infection via the intranasal route. After 2 h of infection, a specific dosage of antibiotic (novobiocin or rifampicin, 10 mg/kg), 2,6-DAC (25 mg/kg) or the combination of antibiotic (novobiocin or rifampicin, 10 mg/kg) and 2,6-DAC (25 mg/kg) were administrated through the intranasal route for 2,6-DAC and through the intraperitoneal route for antibiotic. Mice euthanasian at indicated time points (24 h) was achieved by CO2 asphyxiation followed by cervical dislocation. For histopathological analysis, the lung was fixed in 10% neutral buffered formalin and embedded in paraffin. The paraffin-embedded sections were stained with H&E. The lung was recovered and counted for bacteria concentration.

A. baumannii = assay: MIC determination, broth micro dilution; assay type: cell-based, Acinetobacter baumannii; conditions: Acinetobacter baumannii; A. baumannii AB-1, antibiotic alone; read-out: MIC of antibiotic without 2,6-DAC
Experimental: (§1) MIC values were determined using a broth micro dilution method. Bacteria cells were grown overnight at 37° C. in MHB to a mid-log phase (OD600 between 0.4-0.5 for each organism) and diluted in MHB to 10^5 CFU/mL. […] 50 μL of the 1-5×10^5 CFU/mL bacterial cultures (final concentration) was aliquoted into 96-well microtiter plates and mixed with 50 μL of two-fold dilutions of the polymer or antibiotics and incubated for 16-18 h at 37° C. with shaking at 200 rpm.
(§2) 2,6-DAC was screened as a potentiating agent for synergistic combinations with antibiotics against both A. baumannii AB-1 and MRSA USA300. Before the synergy tests, the MIC values of antibiotics were tested against MDR A. baumannii AB-1 and MRSA USA300 by following the MIC determination protocol in Example 4. Then, the synergy of 2,6-DAC with antibiotics was determined.

A. baumannii AB-1 [4] = assay: Checkerboard synergy assay of 2,6-DAC with antibiotics; assay type: cell-based, Acinetobacter baumannii; conditions: A. baumannii AB-1
Experimental: as §2
(§3) Synergy was measured by time killing assay and checkerboard assay. Time killing assay was performed by following the protocol in Example 4. Checkerboard susceptibility assays to measure combinations of antimicrobials were performed in MHB at 37° C. as previously described (K. R. V. Thappeta et al., ACS Infect. Dis. 2020, 6, 1228-1237; and Z. Si et al., Angew. Chem. Int. Ed. 2020, 59, 6819-6826). The fractional inhibitory concentration (FIC) indices were calculated according to the following formula: […]

MRSA = assay: MIC determination, broth micro dilution; assay type: cell-based; conditions: Staphylococcus aureus; MRSA USA300; read-out: MIC of antibiotic alone / without 2,6-DAC
Experimental: as §1, §2

MRSA USA300 = assay: Checkerboard synergy assay of 2,6-DAC with antibiotics; assay type: cell-based; conditions: antibiotic concentration in combination with 2,6-DAC
Experimental: as §2, §3

MDR A. baumannii (AB-1) [5] = assay: Intraperitoneal infection model in BALB/c mice; assay type: in vivo, Acinetobacter baumannii
Experimental: Bacterial cultures of MDR A. baumannii (AB-1) were prepared and used to infect 8-week-old female BALB/c mice. 10^6 CFU/mL of AB-1 (300 μL) was injected into the intraperitoneal cavity to introduce the infection. After 2 h of infection, specific dosage of antibiotic (novobiocin or rifampicin, 10 mg/kg), 2,6-DAC (25 mg/kg) or the combination of antibiotic (novobiocin or rifampicin, 10 mg/kg) and 2,6-DAC (25 mg/kg) were injected into the intraperitoneal cavity. PBS was used as a control. Mice euthanasian at the indicated time points (18 h) was achieved by CO2 asphyxiation followed by cervical dislocation. The intraperitoneal fluid, kidney, spleen and liver were recovered, and counted for bacteria concentration. For histopathological analysis, the kidney, spleen and liver were fixed in 10% neutral buffered formalin and embedded in paraffin. The paraffin-embedded sections were stained with H&E. The animal studies were carried out in accordance to protocol (A20029) approved by the NTU Institutional Animal Care and Use Committee (NTU-IACUC).

A. baumannii AB-1 [6] = assay: Time killing assay; assay type: cell-based, Acinetobacter baumannii
Experimental: The plates were sealed and incubated at 37° C. with shaking at 200 rpm.
At 0, 0.5, 1, 2, 3, 5, and 24 h post-inoculation, each well was thoroughly mixed with a multi-channel pipette and 20 μL of sample was removed, serially diluted in sterile PBS, plated on LB agar plates, and incubated at 37° C. for 12 h. Colonies were counted to determine the CFU/mL at each time point.
as §3

## Gramicidin
[1]
  Hemolysis: 100%

## 2,6-Diamino Chitosan [Compound 5a]
3T3 cells
  Biocompatibility (in words): good biocompatibility
[2]
  Change in biomarkers of kidney and liver functions (in words): did not cause a significant change

## CO[C@H]1/C=C/O[C@@]2(C)Oc3c(C)c(O)c4c(O)c(c(/C=N/N5CCN(C)CC5)c(O)c4c3C2=O)NC(=O)/C(C)=C\C=C\[C@H](C)[C@H](O)[C@@H](C)[C@@H](O)[C@@H](C)[C@H](OC(C)=O)[C@@H]1C [Rifampicin]
MDR A. baumannii (AB-1) [3]
  Reduction of lung bacteria, single agent: around 1.6 log10

## CO[C@@H]1[C@@H](OC(N)=O)[C@@H](O)[C@H](Oc2ccc3c(O)c(NC(=O)c4ccc(O)c(CC=C(C)C)c4)c(=O)oc3c2C)OC1(C)C [Novobiocin]
A. baumannii
  MIC: 8 µg/mL
A. baumannii AB-1 [4]
  Synergy with 2,6-DAC (in words): synergistic activity
A. baumannii AB-1 [4]; antibiotic concentration in combination with 2,6-DAC (8 μg/mL)
  MIC, antibiotic in combination: 0.5 µg/mL
MRSA
  MIC: 0.125 µg/mL
MRSA USA300
  MIC, antibiotic in combination: 0.03125 µg/mL
MDR A. baumannii (AB-1) [5]; 2,6-DAC + novobiocin, H&E
  Histology of liver, spleen and kidney, combination treatment (in words): significantly alleviated these tissue abnormalities
MDR A. baumannii (AB-1) [5]; alone, H&E, vs infection control
  Histology of liver, spleen and kidney, individual treatment (in words): did not improve the tissue appearance
MDR A. baumannii (AB-1) [5]; alone: 2,6-DAC 25 mg/kg or novobiocin 10 mg/kg, i.p., 18 h
  Efficacy of single agent in intraperitoneal fluid and distal organs (in words): ineffective
A. baumannii AB-1 [6]; 2,6-DAC 0.25×MIC + novobiocin 0.125 to 0.25×MIC
  Bacteria killing, combination with 2,6-DAC: 4 log10
A. baumannii AB-1 [6]; sub-inhibitory concentration, alone, 24 h
  Killing of bacteria by single agent (in words): no killing of bacteria
